Source: patent US20240158447A1, “PEPTIDES FOR USE IN THE TREATMENT OR PREVENTION OF MYOCARDIAL DAMAGE” (THE UNIVERSITY OF WESTERN AUSTRALIA, priority 2020, published 2024)
“Also recorded” adds a separate entry of the source.

Key:
[1] = tested on: wild type cardiac myocytes; test: Intracellular calcium (Fura-2) after H2O2 in cardiac myocytes; format: cell-based, mouse; conditions: 20 min incubation with 0.5-1 μM peptide; 30 μM H2O2 5 min; FIG. 3(a)
Experimental: (§1) Adult male C57BL/6J mice were anesthetized with pentobarbitone sodium (240 mg/kg) via intraperitoneal injection prior to excision of the heart. Ventricular myocytes were isolated. Mouse hearts were cannulated onto a Langendorff apparatus via the aorta and perfused retrogradely with Krebs-Henseleit Buffer (KHB) containing (in mM): 120 NaCl, 25 NaHCO3, 4.8 KCl, 2.2 MgSO4, 1.2 NaH2PO4 and 11 glucose (pH=7.35 with O2/CO2 at 37° C.) for 4 min at 37° C. Hearts were then perfused with KHB supplemented with 2.4 mg/ml collagenase B for 3 min, then 8 min perfusion in the presence of 40 μM calcium. […]
(§2) All in vitro studies were performed in freshly isolated myocytes at 37° C. […] Following a 20 min incubation with 0.5-1 μM AID(S)-TAT, AID-TAT, peptide 6 or peptide 7, fluorescent signal of individual myocytes was quantified using Metamorph 6.3 to measure signal intensity of manually traced cell regions. […]
Intracellular calcium was monitored in cardiac myocytes using the fluorescent indicator Fura-2 AM (Fura-2, 1 μM, ex 340/380 nm, em 510 nm, Molecular Probes). […] Fluorescence at 340/380 nm excitation and 510 nm emission were measured at 1 minute intervals with an exposure of 50 ms before and after exposure to 30 μM H2O2 (5 min) and 10 U/ml catalase (5 min). Ratiometric 340/380 nm signal was quantified and reported as a percentage from the baseline pre-treatment average.

[2] = biological target: T1, L-type Ca^2+ channel β2 subunit (Homo sapiens, UniProt Q08289); test: Binding competition assay of variant peptides for the β2 subunit (AID-coated beads, heart lysate, SDS-PAGE); conditions: competition with bead-bound AID peptide, whole heart lysate, immunoblot densitometry; FIG. 2
T1 construct: from tissue; host or cells: whole heart (cardiac) lysate
Experimental: The affinity of each of the variant peptides to the β2 subunit was investigated through binding competition assays.
PureProteome™ NHS FlexiBind Magnetic Beads (Cat. #LSKMAGN04, Merck) were used following manufacturer recommendations. Aminohexanoic acid linked AID peptide was bound to the NHS flexibind magnetic beads at a concentration of more than 2 mg/mL to obtain saturation of the beads with peptide. Beads were first primed with an equilibration buffer (1 mM HCL) to prepare them for binding. The Ahx-AID peptide was dissolved in wash/coupling buffer (PBS, pH 7.4) and added to the beads. The beads-AID peptide mixture was left to mix uniformly on a multiplate shaker at a speed of 300 rpm at room temperature for 2 hours. To reduce non-specific binding the beads were incubated in Quench Buffer (100 mM Tris-HCl, 150 mM NaCl, pH 8.0) at room temperature for 1 hour.
The AID-peptide bound beads were split into 5 aliquots for the 5 samples prepared in Table 5. The whole heart lysate added to each of the peptide-bound beads to allow competitive binding for 2 hours at room temperature.
Upon completion, the conjugate was washed in coupling buffer, to remove unbound fraction. SDS sample buffer was added to the beads, with the tubes then heated for 5 minutes at 95° C. The eluted sample stored at −20° C. to be run through sodium dodecyl sulfate-polyacrymalide gel electrophoresis (SDS-PAGE) to determine the binding affinity of each of the variants.
The use of streptavidin dynabeads and biotinylated peptide was developed to improve the binding affinity assays. The peptide was initially biotinylated using EZ-link amine-PEG11-biotin (Spacer arm: 53.2 Å, Thermofisher Scientific, Cat. #26136) which was dissolved in 0.1M MES buffer ((2-N-morpholino)-ethanesulfonic acid) at a concentration of 1 mM. Just prior to the reaction, 0.1M EDC (N-(3-Dimethylaminopropyl)-N′-ethylcarbodiimide hydrochloride) was dissolved in MES buffer. In order to achieve complete biotinylation of the AID peptide, a 50× molar excess of biotin to peptide was required, with the total volumes of each component required shown in Table 6.
Each 78 μL aliquot of the biotinylated peptide shown in […] was enough for 6 reactions, covering the range of concentrations in which the heart lysate was again prepared with varying concentrations of the variant AID peptides according to Table 7.
The 78 μL aliquot of biotinylated AID-peptide was mixed with streptavidin dynabeads (1 mg Dynabeads per every 200 pmol biotinylated peptide) for half an hour at room temperature. The heart lysate ([…]) was incubated with the variant peptides at room temperature for 2 hours. After removing all unbound peptide from the beads, they were mixed with the pre-bound heart lysate for 2 hours at room temperature. The unbound fraction was removed. […]

[3] = tested on: myocytes isolated from cTnI-G203S mutant mouse hearts; test: Mitochondrial flavoprotein oxidation after BayK(−), myocytes from HCM hearts (Example 6); format: cell-based; conditions: FIG. 5
Experimental: FIG. 5 presents the effect of mutant peptides on flavoprotein oxidation, a measure of metabolic activity and oxygen consumption in myocytes isolated from cTnI-G203S mutant mouse hearts that are hypertrophic.
All in vitro studies were performed in freshly isolated myocytes at 37° C. […] Following a 20 min incubation with 0.5-1 μM AID(S)-TAT, AID-TAT, peptide 6 or peptide 7, fluorescent signal of individual myocytes was quantified using Metamorph 6.3 to measure signal intensity of manually traced cell regions. An equivalent region not containing cells was used for background and was subtracted.
Autofluorescence was used to measure flavoprotein oxidation in cardiac myocytes based on previously described methods (480 nm ex, 535 nm em). Fluorescent images were taken at 1 min intervals with 1 s exposure before and after exposure to L-type Ca2+ channel agonist BayK(−). Fluorescence was reported as a percentage from the baseline pre-treatment average.

[4] = tested on: wild type cardiac myocytes; test: Intracellular superoxide (DHE) after H2O2 in cardiac myocytes; format: cell-based, mouse; conditions: 20 min incubation with 0.5-1 μM peptide; 30 μM H2O2 5 min; FIG. 3(b)
Experimental: as §1, with “calcium. Following perfusion, aorta and atria were removed, and ventricles gently teased apart and triturated to dissociate myocytes into suspension.” for “calcium.”
as §2
Superoxide generation was assessed in cardiac myocytes using the fluorescent indicator dihydroethidium (DHE, 5 μM, 515-560 nm ex filter, 590 long pass em, Merck). […] Fluorescence was reported as percentage change in the slope of the signal measured at 20-40 min (treatment) over 1-10 min (pre-treatment).

[5] = tested on: wildtype cardiac myocytes; test: Mitochondrial flavoprotein oxidation after BayK(−), wildtype cardiac myocytes (Example 6); format: cell-based, mouse; conditions: wild type hearts, FIG. 4
Experimental: as §1, with “calcium. Following perfusion, aorta and atria were removed, and ventricles gently teased apart and triturated to dissociate myocytes into suspension.” for “calcium.”
as §2
Autofluorescence was used to measure flavoprotein oxidation in cardiac myocytes based on previously described methods (480 nm ex, 535 nm em). […] Fluorescence was reported as a percentage from the baseline pre-treatment average.

T1 sequence (Q08289 whole entry): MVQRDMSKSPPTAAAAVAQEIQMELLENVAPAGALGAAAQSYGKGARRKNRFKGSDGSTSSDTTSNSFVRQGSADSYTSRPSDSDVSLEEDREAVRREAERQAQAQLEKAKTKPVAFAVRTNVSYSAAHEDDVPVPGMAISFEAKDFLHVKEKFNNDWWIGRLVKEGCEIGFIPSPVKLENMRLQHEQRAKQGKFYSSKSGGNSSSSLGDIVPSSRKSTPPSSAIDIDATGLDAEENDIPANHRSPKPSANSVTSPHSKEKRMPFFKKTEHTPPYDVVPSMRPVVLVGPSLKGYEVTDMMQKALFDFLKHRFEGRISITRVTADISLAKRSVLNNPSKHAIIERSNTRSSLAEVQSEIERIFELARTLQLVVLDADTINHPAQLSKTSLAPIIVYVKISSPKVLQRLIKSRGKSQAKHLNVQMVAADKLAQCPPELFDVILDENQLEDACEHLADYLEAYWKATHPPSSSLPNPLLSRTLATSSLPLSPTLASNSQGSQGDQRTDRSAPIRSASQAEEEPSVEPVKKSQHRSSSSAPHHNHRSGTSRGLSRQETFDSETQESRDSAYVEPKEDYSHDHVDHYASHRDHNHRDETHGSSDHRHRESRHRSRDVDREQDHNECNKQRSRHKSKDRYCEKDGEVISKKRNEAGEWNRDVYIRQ

In the case of QQQEEDLKGYLDWITQAE (Variant P7), the “H2O2 induced increase in intracellular Ca2+ (Fura 2)” value [1] was “altered the increase in Fura 2 following H2O2; also recorded: more effective at decreasing H2O2 induced increases in intracellular Ca^2+ (Fura 2) and superoxide production (DHE) than AID-TAT”, the “binding affinity (K0.5) for the target β2 subunit versus the original AID peptide” value [2] was “greater binding affinity (lower K0.5)” and the “flavoprotein oxidation in comparison with AID-TAT peptide” value [3] was “statistically significant reduction in flavoprotein oxidation in comparison with AID-TAT peptide”. The “H2O2 induced superoxide production (DHE)” value [4] was “more effective at decreasing H2O2 induced increases in intracellular Ca^2+ (Fura 2) and superoxide production (DHE) than AID-TAT” and the “flavoprotein oxidation in comparison with AID-TAT peptide” value [5] was “statistically significant reduction in flavoprotein oxidation in comparison with AID-TAT peptide”.
